Columns and labels:
collagenase = molecular target: T1, collagenase (Homo sapiens, UniProt P03956); test: Collagenase Inhibition Activity (procedure of Cawston and Barrett); type: biochemical; conditions: for IC50: acetylated 14C collagen, 37°, 16 hours, pH 7.5, read-out: IC50 (inhibitor concentration effecting 50% inhibition of the collagenase)
T1 sequence (P03956 100-469): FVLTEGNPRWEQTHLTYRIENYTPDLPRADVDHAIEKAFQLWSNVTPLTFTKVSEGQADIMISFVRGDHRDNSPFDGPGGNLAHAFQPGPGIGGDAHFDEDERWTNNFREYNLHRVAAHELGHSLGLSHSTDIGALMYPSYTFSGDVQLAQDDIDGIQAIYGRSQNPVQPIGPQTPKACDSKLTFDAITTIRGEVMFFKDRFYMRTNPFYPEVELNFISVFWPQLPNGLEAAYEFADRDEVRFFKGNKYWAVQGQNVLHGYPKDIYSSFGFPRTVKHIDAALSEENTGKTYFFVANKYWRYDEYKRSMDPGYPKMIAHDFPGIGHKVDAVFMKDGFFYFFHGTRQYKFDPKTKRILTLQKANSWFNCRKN

stromelysin = stromelysin (Homo sapiens, UniProt P08254); test: Stromelysin Inhibition Activity (procedure of Cawston et al); type: biochemical; conditions: for protoglycanase inhibiting activity, in words: protoglycanase = stromelysin (b7)
Procedure: The potency of compounds of general formula I to act as inhibitors of collagenase (a metalloprotease involved in tissue degradation) was determined by the procedure of Cawston and Barrett, (Anal. Biochem., 99, 340-345, 1979) and their potency to act as inhibitors of stromelysin was determined using the procedure of Cawston et al (Biochem. J., 195, 159-165 1981), both of which techniques are to be described more fully in the examples and, to the extent that the law allows, are incorporated by reference herein.

Chain of stromelysin (P08254 100-477): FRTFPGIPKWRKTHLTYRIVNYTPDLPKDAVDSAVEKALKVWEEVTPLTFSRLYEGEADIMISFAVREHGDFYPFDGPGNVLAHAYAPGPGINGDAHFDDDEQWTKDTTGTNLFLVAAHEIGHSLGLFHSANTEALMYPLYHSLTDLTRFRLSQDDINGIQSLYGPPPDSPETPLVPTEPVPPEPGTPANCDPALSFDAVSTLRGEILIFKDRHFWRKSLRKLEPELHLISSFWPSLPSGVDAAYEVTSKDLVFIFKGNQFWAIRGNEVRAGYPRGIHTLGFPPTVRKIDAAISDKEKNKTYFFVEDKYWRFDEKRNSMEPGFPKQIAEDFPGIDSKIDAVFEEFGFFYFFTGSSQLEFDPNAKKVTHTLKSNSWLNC

Compound | collagenase-inhibiting activity, in words (collagenase) | IC50 (collagenase) | IC50 (stromelysin; 14C acetylated casein, 37° C., 16 hours, pH 7.5, read-out: IC50 (inhibitor concentration effecting 50% inhibition of the stromelysin)) | protoglycanase inhibiting activity, in words (stromelysin)
CC(C)C[C@@H](C(=O)N[C@@H](Cc1ccccc1)C(=O)NCCN1CCOCC1)[C@H](C)C(=O)NO [Example 11, [4-(N-Hydroxyamino)-2R-isobutyl-3S-methylsuccinyl]-L-phenylalanine-N-[4-(2-aminoethyl)-morpholino]amide] | good | 15 nM | 50 nM | good
CC(C)C[C@H](CC(=O)NO)C(=O)N[C@@H](Cc1ccccc1)C(=O)NCCN1CCCC1 [Example 3, [4-(N-Hydroxyamino)-2R-isobutylsuccinyl]-L-phenylalanine-N-[1-(2-aminoethyl)-pyrrolidine]amide] | – | 70 nM | – | –
CC(C)C[C@H](CC(=O)NO)C(=O)N[C@@H](Cc1ccccc1)C(=O)NCc1cccnc1 [Example 6, [4-(N-Hydroxyamino)-2R-isobutylsuccinyl]-L-phenylalanine-N-(3-aminomethylpyridine)amide] | good | 20 nM | – | good

— patent publication US5304604A, “Hydroxamic acid collagenase inhibotors” (British Bio-technology Limited, priority 1988, dated 1994)
